# Data reported in publication PMC8851282, “Senolysis induced by 25-hydroxycholesterol targets CRYAB in multiple cell types” (iScience, 2022).
# Tests used:
# [1] = system: Cdkn1a and Cryab mRNA in gastrocnemius and soleus muscles; assay: qRT-PCR of senescence markers and Cryab in muscles of Doxo-treated mice given 25HC; assay type: in vivo, mouse; settings: mice, 4 mg/kg Doxo i.p., 5 injections, versus PBS
# Method: (§1) Figure 8 25HC induces senolysis in vivo in Doxo-treated mice (A) Timeline of 25HC treatment in Doxo-treated mice. Mice were given 4 mg/kg Doxo or PBS for 5 daily injections[A1], then injected with 25HC or vehicle for 7 consecutive days. (B) Mass of gastrocnemius muscles. Muscle weight was normalized to body weight. (C) Cdkn2a and Cryab mRNA levels in gastrocnemius (Gastroc) and soleus (Sol) muscles. RNA was collected 28–30 d after the first treatment with Doxo. mRNA levels were quantified by qRT-PCR, and normalized to actin mRNA levels. The average value of PBS-vehicle was set at 1. (D) 15-d-PGJ2 analysis in urine. Urine was collected at 24 h after the first treatment with 25HC or HbCD. p values versus PBS-Veh or Doxo-Veh are obtained using Tukey's multiple comparisons test. ∗p < 0.05, ∗∗p < 0.01, p < 0.001, and ∗∗∗∗p < 0.0001.
# Male C57BL/6J mice (3–4 months old) were purchased from the Jackson Laboratory. We performed five i.p. injections with 4 mg/kg of Doxo (Tocris Bioscience, Product# 2252) for each injection over 10 days (Figure 6A). Therefore, we injected a total of 20 mg/kg of Doxo/mouse over 10 days. We used EFT-PBS (EMD Millipore, Product# TMS-012-A) as a control. To test effects of 25HC (Tocris Bioscience, Product# 5741) on Doxo-treated mice, we prepared three experimental groups (n=15 for each group): 1) PBS+HβCD vehicle (22.5%), 2) Doxo (20 mg/kg)+vehicle (22.5%), 3) Doxo (20 mg/kg)+25HC (50 mg/kg) (Figure 6A); 25HC was dissolved in 22.5% 2-hydroxypropyl-beta-cyclodextrin (HβCD) (Tocris Bioscience, Product 0708). On the Day 5 after the last Doxo/PBS injections, the mice were treated with either 25HC (50 mg/kg) or vehicle by i.p. injections for 7 consecutive days (Figure 6A). 12 hr after the first 25HC or vehicle treatments, urine was collected (Figure 6A) from each group to test for the senolysis marker 15-d-PGJ2. […] Senescence markers p16^INK4a, p21^Cip1 and CRYAB expression was analyzed on gastrocnemius (Gastroc), soleus (So), tibialis anterior (TA), visceral fat (VF), kidney (Ki), liver (Li), lung (Lu), heart (He), and skin (Sk) samples by qRT-PCR. […]
# [2] = Body weight and gastrocnemius muscle weight in Doxo-treated mice; assay type: in vivo, mouse; settings: 4 mg/kg Doxo i.p., 5 injections, versus PBS
# Method: as §1
# Male C57BL/6J mice (3–4 months old) were purchased from the Jackson Laboratory. We performed five i.p. injections with 4 mg/kg of Doxo (Tocris Bioscience, Product# 2252) for each injection over 10 days (Figure 6A). Therefore, we injected a total of 20 mg/kg of Doxo/mouse over 10 days. […] Senescence markers p16^INK4a, p21^Cip1 and CRYAB expression was analyzed on gastrocnemius (Gastroc), soleus (So), tibialis anterior (TA), visceral fat (VF), kidney (Ki), liver (Li), lung (Lu), heart (He), and skin (Sk) samples by qRT-PCR.
# [3] = system: FAPs; assay: Senescence induction by Doxo in cultured primary FAPs (qRT-PCR of marker genes, growth rate); assay type: cell-based, mouse; settings: 250 or 100 nM Doxo
# [4] = system: SCs; assay: Senescence induction by Doxo in cultured primary SCs (qRT-PCR of marker genes, growth rate); assay type: cell-based, mouse; settings: 250 or 100 nM Doxo
# [5] = system: senescent cells; assay: Senescent cell burden in mice treated with Doxo or Doxo + ABT; settings: four-month-old male mice; Doxo 10 mg/kg; ABT 50 mg/kg/day after Doxo
# [6] = system: SCs; assay: Single-cell RNA sequencing of SCs from skeletal muscle of mice treated with PBS, Doxo or Doxo + ABT (differential gene expression); settings: four-month-old male mice; Doxo 10 mg/kg i.p.; ABT 50 mg/kg/day by gavage, 2 cycles of 5 days
# [7] = system: FAPs; assay: Single-cell RNA sequencing of FAPs from skeletal muscle of mice treated with PBS, Doxo or Doxo + ABT (differential gene expression); settings: for senescent FAPs in mouse skeletal muscle (scRNA seq): four-month-old male mice, Doxo 10 mg/kg i.p., ABT 50 mg/kg/day by gavage, 2 cycles of 5 days
# [8] = system: FAPs; assay: Cell viability assay (cell counting kit-8) of senescent and non-senescent FAPs treated with inhibitors; assay type: cell-based, mouse; settings: for viability of senescent versus non-senescent FAPs: Doxo-induced senescence, viability on day 5, 25HC at concentrations between 0.1 and 1 μM; for IC50: FAPs
# Method: (§2) Figure 3 25HC is a senolytic in multiple muscle cell types (A) Targets, compounds, and mechanisms. (B) Timeline of cell viability assay with inhibitors. Cells were pre-cultured for 24 h, treated with Doxo for 24 h, and then treated with inhibitors. Cell viability was analyzed from day 0–7. (C–E) Effects of inhibitors on viability of FAPs, SCs, and HSMMs. Cells were treated with inhibitors at the indicated concentrations. Cell viability was analyzed on day 3 (HSMMs) or 5 (FAPs and SCs). Blue and red dots indicate non-senescent (NS) and senescent (SEN), respectively. The average value at 0 μM for each group was set at 100% cell viability. p values versus NS were obtained using unpaired two-tailed Student’s t test. ∗p < 0.05, ∗∗p < 0.01, and ∗∗∗p < 0.001.
# (§3) Figure 4 EC50 fitted curves (triplicates) of inhibitor effects at 3 and 7 days in FAPS and SCs EC50 was defined as the concentration of inhibitors that provokes a response halfway between baseline and maximum senolytic activity. EC50 values were determined by four- parameter logistic modeling using GraphPad Prism 8.0.
# (§4) Hind limb muscles were digested in DMEM containing 0.5% (w/v) collagenase type II (Worthington) for 90 min at 37 °C with trituration and passed through a 40-μm nylon mesh. Erythrocytes were eliminated by treating with BD Pharm Lyse (BD Biosciences). Cells were resuspended in a washing buffer of PBS with 2% FBS and stained with antibodies for 30 min at 4 °C as described ([Kamizaki et al., 2017]). FAPs and SCs were isolated from the suspension by FACS (Aria II, BD Biosciences) using anti-CD31, CD45, Sca-1, PDGFR and VCAM1 antibodies. FAPs were identified as Sca1/PDGFR-positive and CD31-, CD45- and VCAM1-negative cells ([Uezumi et al., 2010]). SCs were identified as VCAM1-positive and CD31-, CD45-, Sca-1 and PDGFR-negative cells ([Liu et al., 2015]).
# (§5) All experiments were performed in incubators at 37 °C, 3% O2 and 5% CO2. Senescence was induced by treatment with either Doxo (250 nM for 24 h) ([Demaria et al., 2017]) or X-irradiation (10 Gy) ([Limbad et al., 2020]). For cell culture studies using 25HC, it was used at the indicated concentrations in the media.
# (§6) FAPs and SCs were cultured on Matrigel-coated dishes (BD Biosciences) in growth medium (GM) consisting of DMEM plus 10% FBS, 1% penicillin-streptomycin and 10% MyoCult (STEMCELL Technologies) for 7 days. Human myogenic cell HSMMs (Lonza) were maintained according to the manufacturer’s instructions with SkGM-2 medium (Lonza).
# (§7) Cell viability was assessed using a cell counting kit-8 from Dojindo Molecular Technologies, Inc (Cat CK04-20). Cells were incubated with culture media + 10% kit cell viability reagent, 150 μL/well in 96-well plates for 2 h. The supernatant was transferred to a new 96-well plate and absorbance read at 450 nm as recommended in the product datasheet.
# [9] = system: SCs; assay: Cell viability assay (cell counting kit-8) of senescent and non-senescent SCs treated with inhibitors; assay type: cell-based, mouse; settings: for viability of senescent versus non-senescent SCs: Doxo-induced senescence, viability on day 5
# Method: as §2, §3, §4, §5, §6, §7
# [10] = system: human skeletal muscle myoblasts (HSMMs); assay: Cell viability assay (cell counting kit-8) of senescent and non-senescent HSMMs treated with inhibitors; assay type: cell-based; settings: for viability of senescent versus non-senescent HSMMs: Doxo-induced senescence, viability on day 3; for IC50: Homo sapiens, Myoblast, HSMM
# Method: as §2, §5, §6, §7
# [11] = system: mouse dermal fibroblasts (mDFs); assay: Cell viability assay of NS and SEN mouse dermal fibroblasts treated with CRYAB and HMOX1 inhibitors; assay type: cell-based; settings: 250 nM Doxo-induced senescence; after 72 h of treatment; 25HC at five or 10 μM
# Method: The average value of DMSO was set at 1. (B and D) Effects of CRYAB and HMOX1 inhibitors on DMSO-treated NS or Doxo-treated SEN cells; (B) mDFs, (D) IMR-90s. Cells were treated with the inhibitors at the indicated concentrations. Cell viability was measured after 72 h. (C) IMR-90 qRT-PCR. For qPCR: mean +/- SE, n =4, ∗p< 0.05, ∗∗p< 0.01, ∗∗∗p<0.001, ∗∗∗∗p<0.0001 by Dunnett’s multiple comparisons test vs DMSO. For cell viability assays: mean +/- SE, n =3, ∗∗p< 0.01, ∗∗∗p<0.001, ∗∗∗∗p<0.0001 vs 0 mM by student’s t test.
# For skin sample collection, mice were euthanized, hair removed from dorsal skin and the area cleaned with alcohol. A small 1 cm x 1 cm region of skin was removed, and subcutaneous fat removed by scalpel. Skin was digested in 2–3 ml of 0.25% trypsin at 37 °C for 1 h. Hair and epidermis were further removed, and the dermis was minced into 2–3 mm pieces. Digestion of the sample in 5 ml of 1 mg/ml collagenase (Sigma, Cat#C5138) in HBSS (with Ca^++ and Mg^++) (Gibco, cat#24020117) was carried out at 37 °C on a shaker for 1 h. Collagenase digestion was stopped by addition of 10 ml 10% FBS DMEM. Filtration of the homogenate through a 70-micron mesh was performed to remove undigested tissue. Differential centrifugation and washing were performed at 1200 rpm for 5 min, and the pellet was resuspended in 10% FBS DMEM then seeded in a six-well plate. Media were changed at 5 days after seeding and then every 3 days.
# as §5, §7
smiles,measurement,setting,value
"COc1cccc2c1C(=O)c1c(O)c3c(c(O)c1C2=O)C[C@@](O)(C(=O)CO)C[C@@H]3O[C@H]1C[C@H](N)[C@H](O)[C@H](C)O1 [Doxo, Doxorubicin]",Cdkn1A mRNA in gastrocnemius and soleus muscles,[1],significantly increased
same,body weight,[2],significantly decreased
same,gastrocnemius muscle weight normalized to body weight,[2],no difference
same,senescence induction in cultured FAPs,[3],induced senescence
same,senescence induction in cultured SCs,[4],induced senescence
same,burden of senescent cells in mice,[5],induced senescence
same,senescent SCs in mouse skeletal muscle (scRNA seq),[6],induces senescence
same,senescent FAPs in mouse skeletal muscle (scRNA seq),[7],induces senescence
Brc1ccc(CCC2(Cn3ccnc3)OCCO2)cc1.Cl [OB24],viability of senescent versus non-senescent FAPs,[8],slightly but significantly decreased the viability of FAPs
same,IC50,[8]; 7 days in culture,261 µM
same,viability of senescent versus non-senescent SCs,[9],no difference in killing
same,viability of senescent versus non-senescent HSMMs,[10],significantly decreased cell viability
same,senolysis in mDF cells,[11],ineffective
CC1(C)CCC(c2ccc(Cl)cc2)=C(CN2CCN(c3ccc(C(=O)NS(=O)(=O)c4ccc(N[C@H](CCN5CCOCC5)CSc5ccccc5)c(S(=O)(=O)C(F)(F)F)c4)cc3)CC2)C1 [ABT263],IC50,"[8]; Mus musculus, 72 h, 3 days in culture",14.7 µM
same,IC50,"[8]; Mus musculus, 168 h, 7 days in culture",7.5 µM
same,IC50,"[9]; Mus musculus, 168 h, SCs, 7 days in culture",14.1 µM
same,IC50,"[10]; 72 h, 3 days in culture",15.2 µM
same,IC50,"[10]; 168 h, 7 days in culture",9 µM
same,burden of senescent cells in mice,[5],reduced burden of senescent cells
same,senescent SCs in mouse skeletal muscle (scRNA seq),[6],reduces the fraction
same,senescent FAPs in mouse skeletal muscle (scRNA seq),[7],reduces the fraction
same,avg_logFC of gene Capza2,"[7]; sheet abt_down, gene Capza2, cluster c7, scRNA-seq differential expression",-0.2501
same,avg_logFC of gene Coq10b,"[7]; sheet abt_down, gene Coq10b, cluster c7, scRNA-seq differential expression",-0.25
same,avg_logFC of gene Hes1,"[7]; sheet abt_down, gene Hes1, cluster c1, scRNA-seq differential expression",-0.2504
same,avg_logFC of gene Pds5b,"[7]; sheet abt_down, gene Pds5b, cluster c9, scRNA-seq differential expression",-0.2501
same,avg_logFC of gene Qpct,"[7]; sheet abt_down, gene Qpct, cluster c3, scRNA-seq differential expression",-0.2504
same,avg_logFC of gene Creld2,"[7]; sheet abt_up, gene Creld2, cluster c4, scRNA-seq differential expression",0.8182
same,avg_logFC of gene Cxcl14,"[7]; sheet abt_up, gene Cxcl14, cluster c5, scRNA-seq differential expression",0.8906
same,avg_logFC of gene Myl9,"[7]; sheet abt_up, gene Myl9, cluster c9, scRNA-seq differential expression",0.9071
same,avg_logFC of gene Plac8,"[7]; sheet abt_up, gene Plac8, cluster c3, scRNA-seq differential expression",0.7972
same,avg_logFC of gene Tpm2,"[7]; sheet abt_up, gene Tpm2, cluster c9, scRNA-seq differential expression",1.1381
O=C(CC(c1ccccc1)c1ccccc1)Cn1ccnc1 [QC-308],viability of senescent versus non-senescent FAPs,[8],slightly but significantly decreased the viability of FAPs
same,viability of senescent versus non-senescent SCs,[9],no difference in killing
same,viability of senescent versus non-senescent HSMMs,[10],significantly decreased cell viability
same,senolysis in mDF cells,[11],ineffective
